# In patent publication US10752591B2, “18-20 member bi-polycyclic compounds” (Haro Pharmaceutical Inc., priority 2014, dated 2020):
# What was measured:
# [1] = target: purified recombinant human HDAC-1 (Homo sapiens, UniProt Q13547); experiment: HDAC-1 enzymatic inhibition (AMC fluorogenic peptide deacetylation); format: biochemical; settings: up to
# Protocol: The effect of compounds on the enzymatic activity of purified recombinant human HDAC-1, -2, -3, -6, and -8 activity and of purified rat liver HDAC was examined by measuring the deacetylation of synthetic peptides in various preparations of HDACs. HDAC assays were performed using a two-step enzymatic reaction where enzyme activity is correlated to the release of […] (AMC). AMC fluorescence is measured in a fluorescent plate reading using λex380 nm and λen440 nm.
# The reaction was allowed to proceed for 40 min at 37° C., after which developer solution (0.5% trypsin, 10 μM trichostatin A (TSA)) was added to obtain a final concentration of 0.1% trypsin, 2 μM TSA. After 30 minutes at room temperature, the amount of free fluorogenic AMC was measured as described above.
# [2] = test system: MDA-MB-231 breast cancer cells; experiment: cytotoxicity, cell survival (CellTiterGlo) in MDA-MB-231; format: cell-based; settings: MDA-MB-231 cells
# Protocol: (§1) The cytotoxicity of compounds was examined and directly compared to compound 17, by measuring cell survival of clonal tumor cell lines IMR-32, BE2C (neuroblastoma), as well as MDA-MB-231, BT20, HCC-38 (Basal) and MCF7 (luminal) breast cancer cells (ATCC). Cells were cultured in phenol red-free RPMI medium supplemented with 10% FBS and 1 mM Ala-Glu. Typically, 10,000-20,000 cells/well were plated in a 96 well plate (Costar 3197). Cells were exposed to compounds or vehicle (1% DMSO final). Cells were maintained in the presence of compound for four or five days. Media and compounds were renewed every 48 hours. Cell survival was measured using the luminescence CellTiterGlo kit (Promega Corporation) and expressed as relative light unit as fold over DMSO.
# RXR = experiment: RXR-mediated transcription, RXRE luciferase reporter in MCF7 cells; format: cell-based
# From the text: The effect of various compounds of the invention on RAR-mediated transcription in MCF7 breast cancer cells was examined by measuring their effect on the transcription of a luciferase reporter gene under the control of a TK promoter placed downstream of a RAR response element. In addition, the effect of the compounds on the closely related RXR-mediated transcription was examined by measuring their effect on the transcription of a luciferase reporter gene under the control of a TK promoter placed downstream of a RXR response element.
# Typically, 10,000 cells were plated in 96 wells plates in phenol red-free RPMI medium supplemented with 10% charcoal-stripped Fetal Bovine Serum. After 24 hours, cells were transfected with 0.1 μg of luciferase reporter plasmid and 0.01 μg of a reporter plasmid expressing renilla luciferase (RLuc) gene under the control of a SV40 promoter, using Fugene 6 transfection reagent (0.5 μl/well Promega Corporation). Cells were treated in triplicate with compounds or vehicle (DMSO) for 24 hours. Luciferase and renilla luciferase activities were measured using Dual-Glo reagent (Promega Corporation). Luciferase activity was normalized in each well for renilla activity.
# [3] = test system: IMR-32 neuroblastoma cells; experiment: cytotoxicity, cell survival (CellTiterGlo) in IMR-32; format: cell-based; settings: relative to compounds 17 and 8
# Protocol: as §1
# Sequence of purified recombinant human HDAC-1 (Q13547 whole entry): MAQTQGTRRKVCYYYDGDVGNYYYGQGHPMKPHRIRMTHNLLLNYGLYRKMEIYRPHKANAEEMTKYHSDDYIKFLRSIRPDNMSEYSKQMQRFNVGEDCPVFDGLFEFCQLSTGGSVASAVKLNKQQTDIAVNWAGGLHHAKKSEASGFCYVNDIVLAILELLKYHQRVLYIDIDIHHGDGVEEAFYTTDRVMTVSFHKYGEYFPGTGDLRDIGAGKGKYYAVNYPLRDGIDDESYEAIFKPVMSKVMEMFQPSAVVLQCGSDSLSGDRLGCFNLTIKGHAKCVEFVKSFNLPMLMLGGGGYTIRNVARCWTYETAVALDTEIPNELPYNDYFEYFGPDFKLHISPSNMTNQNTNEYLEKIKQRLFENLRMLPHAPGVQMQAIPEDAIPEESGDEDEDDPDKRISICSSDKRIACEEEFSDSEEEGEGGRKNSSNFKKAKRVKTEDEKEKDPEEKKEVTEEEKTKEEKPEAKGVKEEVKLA
smiles,measurement,setting,value
CC1(C)CCC(C)(C)c2cc(-c3cc4cc(C(=O)NO)ccc4[nH]3)ccc21 [Compound 13],maximal inhibition of HDAC-1 activity,[1],~50%
same,"cytotoxic potency compared with compound 17, SAHA, Ricolinistat",[2],"more potent than compound 17, SAHA or Ricolinistat"
same,transcriptional activation of RXR / RXRE-promoter,RXR,none
same,fold more potent than compounds 17 and 8 in killing IMR-32 cells,[3],ten
